Columns and labels:
Format in all cases: in vivo
[1] = test system: winter barley (Hordeum vulgare); experiment: Test B postemergence plant response; details: for Barley plant response rating: scale 0 to 100
Outline: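 Plants grown in peat/vermiculite medium were sprayed postemergence at 2–18 cm height (1- to 4-leaf stage). After 13–15 days in the greenhouse, response was rated visually against untreated controls on a 0–100 scale (0 no effect, 100 complete control).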

rice (Oryza sativa) = experiment: Test B flooded paddy test; details: for Plant response rating, Flood, Rice: 250 g ai/ha, flooded paddy test, visual rating on 0 to 100 scale (0 no effect, 100 complete control) after 13 to 15 days; for Plant response rating, Rice: Flood (flooded paddy test), 13 to 15 days
Outline: (§1)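 Seedlings reaching 2 leaves are flooded 3 cm deep; test material is delivered to that water, which stays at the same depth. Plants remain in a greenhouse 13–15 days and are then scored by eye versus controls from 0 to 100.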

[2] = test system: ducksalad (Heteranthera limosa); experiment: Test B flooded paddy test; details: for Plant response rating, Flood, Ducksalad: 250 g ai/ha, flooded paddy test, visual rating on 0 to 100 scale (0 no effect, 100 complete control) after 13 to 15 days; for Plant response rating, Ducksalad: Flood (flooded paddy test), 13 to 15 days
Outline: as §1

[3] = test system: barnyardgrass (Echinochloa crus-galli); experiment: Test B flooded paddy test; details: for Plant response rating, Flood, Barnyardgrass: 250 g ai/ha, flooded paddy test, visual rating on 0 to 100 scale (0 no effect, 100 complete control) after 13 to 15 days; for Plant response rating, Barnyardgrass: Flood (flooded paddy test), 13 to 15 days
Outline: as §1

[4] = test system: umbrella sedge (Cyperus difformis); experiment: Test B flooded paddy test; details: for Plant response rating, Flood, Sedge, Umbrella: 250 g ai/ha, flooded paddy test, visual rating on 0 to 100 scale (0 no effect, 100 complete control) after 13 to 15 days; for Plant response rating, Sedge, Umbrella: Flood (flooded paddy test), 13 to 15 days
Outline: as §1

[5] = test system: morningglory (Ipomoea spp.); experiment: Test A pre-/postemergence plant response
Outline: (§2)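 Approximately ten days after concurrent pre- and postemergence spraying in a greenhouse, plants were compared with untreated controls and rated visually for injury, 0 = no effect to 100 = complete control. Preemergence spray was directed onto loam/sand soil; postemergence targeted 1–2 leaf seedlings.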

corn (Zea mays) = experiment: Test A pre-/postemergence plant response
Outline: as §2

[6] = test system: pigweed (Amaranthus retroflexus); experiment: Test A pre-/postemergence plant response
Outline: as §2

[7] = test system: wheat (Triticum aestivum); experiment: Test A pre-/postemergence plant response
Outline: as §2

[8] = test system: barnyardgrass (Echinochloa crus-galli); experiment: Test A pre-/postemergence plant response
Outline: as §2

[9] = test system: velvetleaf (Abutilon theophrasti); experiment: Test A pre-/postemergence plant response
Outline: as §2

[10] = test system: large crabgrass (Digitaria sanguinalis); experiment: Test A pre-/postemergence plant response
Outline: as §2

[11] = test system: giant foxtail (Setaria faberii); experiment: Test A pre-/postemergence plant response
Outline: as §2

[12] = Postemergence, 125 g ai/ha, visual rating after 13 to 15 days, scale 0 (no effect) to 100 (complete control)
[13] = 62 g ai/ha, scale of 0 to 100 where 0 is no effect and 100 is complete control
[14] = 125 g ai/ha, scale 0 to 100, 0 is no effect, 100 is complete control
[15] = Flood, 31 g ai/ha, scale 0 to 100 (0 no effect, 100 complete control)
[16] = Postemergence, 125 g ai/ha, visual injury, 0 to 100 scale (0 no effect, 100 complete control), approx. ten days
[17] = Postemergence, 500 g ai/ha, 0 to 100 scale, 0 = no effect, 100 = complete control, approx. ten days
[18] = Preemergence, 125 g ai/ha, 0 to 100 scale, 0 = no effect, 100 = complete control
[19] = Preemergence, 500 g ai/ha, visual injury, 0 to 100 scale (0 no effect, 100 complete control), approx. ten days
[20] = Postemergence, 31 g ai/ha, scale 0 to 100 (0 no effect, 100 complete control)
[21] = Postemergence, 62 g ai/ha, scale 0 (no effect) to 100 (complete control), 13 to 15 days
[22] = 62 g ai/ha, scale 0 to 100, 0 is no effect, 100 is complete control
[23] = 31 g ai/ha, scale of 0 to 100 where 0 is no effect and 100 is complete control

O=C1CCCC(O)=C1C(=O)c1cnc(-c2ccccc2Br)n(-c2ccccc2)c1=O [Compound 71]
Plant response rating, Barley ([1]; 31 g ai/ha, postemergence, scale 0 to 100, 0 is no effect, 100 is complete control): 0 | Barley plant response rating (0 to 100 scale) ([1]; 62 g ai/ha, postemergence, 0 is no effect, 100 is complete control, 13 to 15 days): 0 | Plant response rating, Barley [1, 12]: 0 | Plant response rating, Barley ([1]; Postemergence, 250 g ai/ha, scale 0 to 100 (0 no effect, 100 complete control)): 5 | Plant response rating, Flood, Rice (rice (Oryza sativa)): 0 | Plant response rating, Rice (rice (Oryza sativa); [13]): 0 | Plant response rating, Rice (rice (Oryza sativa); [14]): 0 | Rice plant response rating (rice (Oryza sativa); [15]): 0 | Plant response rating, Flood, Ducksalad [2]: 0 | Plant response rating, Ducksalad [2, 13]: 0 | Plant response rating, Ducksalad [2, 14]: 0 | Ducksalad plant response rating [2, 15]: 0 | Plant response rating, Flood, Barnyardgrass [3]: 0 | Plant response rating, Barnyardgrass [3, 13]: 0 | Plant response rating, Barnyardgrass [3, 14]: 0 | Barnyardgrass plant response rating [3, 15]: 0 | Plant response rating, Flood, Sedge, Umbrella [4]: 25 | Plant response rating, Sedge, Umbrella [4, 13]: 0 | Plant response rating, Sedge, Umbrella [4, 14]: 0 | Sedge, Umbrella plant response rating [4, 15]: 0 | Morningglory plant response rating [5, 16]: 80 | Plant response rating, Morningglory [5, 17]: 100 | Plant response rating, Morningglory [5, 18]: 0 | Plant response rating, Morningglory [5, 19]: 0 | Corn plant response rating (corn (Zea mays); [16]): 0 | Plant response rating, Corn (corn (Zea mays); [17]): 20 | Plant response rating, Corn (corn (Zea mays); [18]): 0 | Plant response rating, Corn (corn (Zea mays); [19]): 0 | Pigweed plant response rating [6, 16]: 70 | Plant response rating, Pigweed [6, 17]: 100 | Plant response rating, Pigweed [6, 19]: 90 | Wheat plant response rating [7, 16]: 0 | Plant response rating, Wheat [7, 17]: 0 | Plant response rating, Wheat [7, 18]: 0 | Plant response rating, Wheat [7, 19]: 0 | Barnyardgrass plant response rating [8, 16]: 0 | Plant response rating, Barnyardgrass [8, 17]: 60 | Plant response rating, Barnyardgrass [8, 18]: 0 | Plant response rating, Barnyardgrass [8, 19]: 0 | Velvetleaf plant response rating [9, 16]: 100 | Plant response rating, Velvetleaf [9, 17]: 100 | Plant response rating, Velvetleaf [9, 18]: 50 | Plant response rating, Velvetleaf [9, 19]: 70 | Crabgrass, Large plant response rating [10, 16]: 30 | Plant response rating, Crabgrass, Large [10, 17]: 80 | Plant response rating, Crabgrass, Large [10, 18]: 10 | Plant response rating, Crabgrass, Large [10, 19]: 50 | Foxtail, Giant plant response rating [11, 16]: 20 | Plant response rating, Foxtail, Giant [11, 17]: 60 | Plant response rating, Foxtail, Giant [11, 18]: 0 | Plant response rating, Foxtail, Giant [11, 19]: 10

Cc1c(Cl)cccc1-n1c(-c2ccccc2)ncc(C(=O)C2=C(O)CCCC2=O)c1=O [Compound 40]
Plant response rating, Barley [1, 20]: 0 | Plant response rating, Barley [1, 21]: 0 | Plant response rating, Barley [1, 12]: 10 | Barley plant response rating ([1]; Postemergence, 250 g ai/ha): 10 | Plant response rating, Flood, Rice (rice (Oryza sativa)): 25 | Plant response rating, Rice (rice (Oryza sativa); [22]): 0 | Plant response rating, Flood, Ducksalad [2]: 90 | Plant response rating, Ducksalad [2, 22]: 0 | Plant response rating, Flood, Barnyardgrass [3]: 40 | Plant response rating, Barnyardgrass [3, 22]: 0 | Plant response rating, Flood, Sedge, Umbrella [4]: 85 | Plant response rating, Sedge, Umbrella [4, 22]: 70 | Morningglory plant response rating [5, 16]: 50 | Plant response rating, Morningglory [5, 17]: 100 | Plant response rating, Morningglory [5, 18]: 10 | Plant response rating, Morningglory [5, 19]: 80 | Corn plant response rating (corn (Zea mays); [16]): 0 | Plant response rating, Corn (corn (Zea mays); [17]): 50 | Plant response rating, Corn (corn (Zea mays); [18]): 0 | Plant response rating, Corn (corn (Zea mays); [19]): 0 | Pigweed plant response rating [6, 16]: 100 | Plant response rating, Pigweed [6, 17]: 100 | Plant response rating, Pigweed [6, 18]: 70 | Plant response rating, Pigweed [6, 19]: 90 | Wheat plant response rating [7, 16]: 0 | Plant response rating, Wheat [7, 17]: 0 | Plant response rating, Wheat [7, 18]: 0 | Plant response rating, Wheat [7, 19]: 0 | Barnyardgrass plant response rating [8, 16]: 90 | Plant response rating, Barnyardgrass [8, 17]: 90 | Plant response rating, Barnyardgrass [8, 18]: 10 | Plant response rating, Barnyardgrass [8, 19]: 100 | Velvetleaf plant response rating [9, 16]: 100 | Plant response rating, Velvetleaf [9, 17]: 100 | Plant response rating, Velvetleaf [9, 18]: 70 | Plant response rating, Velvetleaf [9, 19]: 100 | Crabgrass, Large plant response rating [10, 16]: 90 | Plant response rating, Crabgrass, Large [10, 17]: 100 | Plant response rating, Crabgrass, Large [10, 18]: 60 | Plant response rating, Crabgrass, Large [10, 19]: 100 | Foxtail, Giant plant response rating [11, 16]: 90 | Plant response rating, Foxtail, Giant [11, 17]: 100 | Plant response rating, Foxtail, Giant [11, 18]: 50 | Plant response rating, Foxtail, Giant [11, 19]: 90

Cc1ccc(-n2c(-c3ccccc3)ncc(C(=O)C3=C(O)CCCC3=O)c2=O)cc1 [Compound 8]
Plant response rating, Barley [1, 20]: 0 | Plant response rating, Barley [1, 21]: 0 | Plant response rating, Barley ([1]; Postemergence, 125 g ai/ha, scale 0 to 100 (0 no effect, 100 complete control), 13 to 15 days): 5 | Barley plant response rating ([1]; Postemergence, 250 g ai/ha): 20 | Plant response rating, Flood, Rice (rice (Oryza sativa)): 50 | Plant response rating, Rice (rice (Oryza sativa); [23]): 0 | Plant response rating, Rice (rice (Oryza sativa); [22]): 0 | Plant response rating, Rice (rice (Oryza sativa); [14]): 15 | Plant response rating, Flood, Ducksalad [2]: 90 | Plant response rating, Ducksalad [2, 23]: 30 | Plant response rating, Ducksalad [2, 22]: 85 | Plant response rating, Ducksalad [2, 14]: 85 | Plant response rating, Flood, Barnyardgrass [3]: 45 | Plant response rating, Barnyardgrass [3, 23]: 0 | Plant response rating, Barnyardgrass [3, 22]: 0 | Plant response rating, Barnyardgrass [3, 14]: 20 | Plant response rating, Flood, Sedge, Umbrella [4]: 95 | Plant response rating, Sedge, Umbrella [4, 23]: 30 | Plant response rating, Sedge, Umbrella [4, 22]: 65 | Plant response rating, Sedge, Umbrella [4, 14]: 85 | Morningglory plant response rating [5, 16]: 90 | Plant response rating, Morningglory [5, 17]: 100 | Plant response rating, Morningglory [5, 18]: 0 | Plant response rating, Morningglory [5, 19]: 70 | Corn plant response rating (corn (Zea mays); [16]): 10 | Plant response rating, Corn (corn (Zea mays); [17]): 50 | Plant response rating, Corn (corn (Zea mays); [18]): 0 | Plant response rating, Corn (corn (Zea mays); [19]): 20 | Pigweed plant response rating [6, 16]: 100 | Plant response rating, Pigweed [6, 17]: 100 | Plant response rating, Pigweed [6, 18]: 90 | Plant response rating, Pigweed [6, 19]: 90 | Wheat plant response rating [7, 16]: 10 | Plant response rating, Wheat [7, 17]: 50 | Plant response rating, Wheat [7, 18]: 0 | Plant response rating, Wheat [7, 19]: 20 | Barnyardgrass plant response rating [8, 16]: 90 | Plant response rating, Barnyardgrass [8, 17]: 100 | Plant response rating, Barnyardgrass [8, 18]: 10 | Plant response rating, Barnyardgrass [8, 19]: 80 | Velvetleaf plant response rating [9, 16]: 100 | Plant response rating, Velvetleaf [9, 17]: 100 | Plant response rating, Velvetleaf [9, 18]: 50 | Plant response rating, Velvetleaf [9, 19]: 90 | Crabgrass, Large plant response rating [10, 16]: 80 | Plant response rating, Crabgrass, Large [10, 17]: 90 | Plant response rating, Crabgrass, Large [10, 18]: 40 | Plant response rating, Crabgrass, Large [10, 19]: 100 | Foxtail, Giant plant response rating [11, 16]: 90 | Plant response rating, Foxtail, Giant [11, 17]: 100 | Plant response rating, Foxtail, Giant [11, 18]: 40 | Plant response rating, Foxtail, Giant [11, 19]: 90

Reference: US8952024B2, “Herbicidal pyrimidone derivatives” (E I du Pont de Nemours and Company, priority 2009, dated 2015)
